From patent US6960614B2, “Oxygenated esters of 4-lodo phenylamino benzhydroxamic acids” (Warner-Lambert Company, priority 2000, dated 2005)

Key:
MEK = experiment: Cellular Assay for Measuring MEK Inhibition (inhibition of ERK phosphorylation in C26 cells, Western blot); assay type: cell-based, murine; conditions: inhibition of ERK phosphorylation in murine colon 26 (C26) carcinoma cells; determined graphically from dose response curve
In short: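 Read-out is phospho-ERK1/2 by Western blot, normalized against total ERK1/2 after stripping and re-probing. Murine C26 colon carcinoma cells in exponential growth were exposed to a range of compound concentrations at 37° C before lysis.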

| SMILES | IC50 (MEK) | melting point |
| --- | --- | --- |
| O=C(NOCCO)c1ccc(F)c(F)c1Nc1ccc(Br)cc1F [Example 22, 2-(4-Bromo-2-fluoro-phenylamino)-3,4-difluoro-N-(2-hydroxy-ethoxy)-benzamide] | 7.7 nM | 146.1 to 146.4 °C |
| Cc1cc(I)ccc1Nc1cc(F)ccc1C(=O)NOCCCO [Example 28, 4-Fluoro-N-(3-hydroxy-propoxy)-2-(4-iodo-2-methyl-phenylamino)-benzamide] | 120 nM | 120.8 to 122.4 °C |
| O=C(NOC(CO)CO)c1cc(Cl)c(F)c(F)c1Nc1ccc(I)cc1F [Example 48, 5-Chloro-3,4-difluoro-2-(2-fluoro-4-iodo-phenylamino)-N-(2-hydroxy-1-hydroxymethyl-ethoxy)-benzamide] | 1.6 nM | 173 to 175 °C |
| Cc1cc(I)ccc1Nc1c(C(=O)NOCC(O)CO)cc(Cl)c(F)c1F (stereo not shown) [Example 35, 5-Chloro-N-(2,3-dihydroxy-propoxy)-3,4-difluoro-2-(4-iodo-2-methyl-phenylamino)-benzamide] | 6 nM | 67 to 69 °C |
| Cc1cc(I)ccc1Nc1c(C(=O)NOC(C)(C)CO)ccc(F)c1F [Example 63, 3,4-Difluoro-N-(2-hydroxy-1,1-dimethyl-ethoxy)-2-(4-iodo-2-methyl-phenylamino)-benzamide] | 47 nM | 175 to 176 °C |
| O=C(NOCC(O)CO)c1ccc(F)cc1Nc1ccc(I)cc1F (stereo not shown) [Example 42, N-(2,3-Dihydroxy-propoxy)-4-fluoro-2-(2-fluoro-4-iodo-phenylamino)-benzamide] | 2.7 nM | 173 to 175 °C |
| O=C(NOCCCO)c1ccc(F)cc1Nc1ccc(I)cc1Cl [Example 30] | 130 nM | 158.8 to 160.8 °C |
| Cc1cc(I)ccc1Nc1c(C(=O)NOCC(O)C(F)(F)F)ccc(F)c1F (stereo not shown) [Example 72, 3,4-Difluoro-2-(4-iodo-2-methyl-phenylamino)-N-(3,3,3-trifluoro-2-hydroxy-propoxy)-benzamide] | 19 nM | 175.2 to 175.5 °C |
| O=C(NOCCO)c1cc(F)c(F)c(F)c1Nc1ccc(I)cc1Cl [Example 6, 2-(2-Chloro-4-iodo-phenylamino)-3,4,5-trifluoro-N-(2-hydroxy-ethoxy)-benzamide] | 5 nM | 183 to 184.5 °C |
| O=C(NOCCO)c1cc(Cl)c(F)c(F)c1Nc1ccc(I)cc1 [Example 7, 5-Chloro-3,4-difluoro-N-(2-hydroxy-ethoxy)-2-(4-iodo-phenylamino)-benzamide] | 5 nM | 174 to 176 °C |
| CC1(C)OCC(CONC(=O)c2ccc(F)c(F)c2Nc2ccc(I)cc2F)O1 (stereo not shown) [Example 38, N-(2,2-Dimethyl-[1,3]dioxolan-4-ylmethoxy)-3,4-difluoro-2-(2-fluoro-4-iodo-phenylamino)-benzamide] | > 1000 nM | 114 to 115 °C |
| O=C(NOCCO)c1ccc(F)c(F)c1Nc1ccccc1F [Example 25, 3,4-Difluoro-2-(2-fluoro-phenylamino)-N-(2-hydroxy-ethoxy)-benzamide] | 52 nM | 129.6 to 130.4 °C |
| Cc1cc(I)ccc1Nc1c(C(=O)NOCCO)cc(Cl)c(F)c1F [Example 15] | 1 nM | 199.1 to 200.8 °C |
| O=C(NOCCO)c1cc(Br)c(F)c(F)c1Nc1ccc(I)cc1Cl [Example 14, 5-Bromo-2-(2-chloro-4-iodo-phenylamino)-3,4-difluoro-N-(2-hydroxy-ethoxy)-benzamide] | 2 nM | 190.2 to 200.2 °C |
| CC1(C)OCC(ONC(=O)c2ccc(F)c(F)c2Nc2ccc(I)cc2F)CO1 [Example 46, N-(2,2-Dimethyl-[1,3]dioxan-5-yloxy)-3,4-difluoro-2-(2-fluoro-4-iodo-phenylamino)-benzamide] | 582 nM | 154 to 155 °C |
| O=C(NOCCO)c1ccc(F)c(F)c1Nc1ccc(I)cc1Cl [Example 3, 2-(2-Chloro-4-iodo-phenylamino)-3,4-difluoro-N-(2-hydroxy-ethoxy)-benzamide] | 4 nM | 173 to 175 °C |
| O=C(NOCC(O)CO)c1ccc(F)c(F)c1Nc1ccccc1F (stereo not shown) [Example 85, N-(2,3-Dihydroxy-propoxy)-3,4-difluoro-2-(2-fluoro-phenylamino)-benzamide] | 54 nM | 113 to 115 °C |
| O=C(NOCCO)c1ccc(F)c(F)c1Nc1ccc(Cl)cc1F [Example 24, 2-(4-Chloro-2-fluoro-phenylamino)-3,4-difluoro-N-(2-hydroxy-ethoxy)-benzamide] | 26 nM | 142.1 to 142.5 °C |
| CC(C)(O)CONC(=O)c1ccc(F)c(F)c1Nc1ccc(I)cc1F [Example 67, 3,4-Difluoro-2-(2-fluoro-4-iodo-phenylamino)-N-(2-hydroxy-2-methyl-propoxy)-benzamide] | 6 nM | 156.7 to 156.9 °C |

| SMILES | IC50 (MEK) | melting point |
| --- | --- | --- |
| O=C(NOC(CO)CO)c1ccc(F)c(F)c1Nc1ccc(I)cc1F [Example 47, 3,4-Difluoro-2-(2-fluoro-4-iodo-phenylamino)-N-(2-hydroxy-1-hydroxymethyl-ethoxy)-benzamide] | 1 nM | 111 to 114 °C |
| O=C(NOCC(O)CO)c1ccc(F)c(F)c1Nc1ccc(Cl)cc1F (stereo not shown) [Example 45, 2-(4-Chloro-2-fluoro-phenylamino)-N-(2,3-dihydroxy-propoxy)-3,4-difluoro-benzamide] | 19 nM | 114 to 114.9 °C |
| O=C(NOC[C@@H]1C[C@H]1CO)c1cc(Cl)c(F)c(F)c1Nc1ccc(I)cc1F (relative stereo) [Example 75, 5-Chloro-3,4-difluoro-2-(2-fluoro-4-iodo-phenylamino)-N-[trans-(2-hydroxymethyl-cyclopropylmethoxy)]-benzamide] | 42 nM | 152.5 to 153.1 °C |
| O=C(NOCCO)c1cc(Br)c(F)cc1Nc1ccc(I)cc1F [Example 19] | 1 nM | 173 to 175 °C |
| COCC(O)CONC(=O)c1ccc(F)c(F)c1Nc1ccc(I)cc1C (stereo not shown) [Example 68] | 24 nM | 136.2 to 136.5 °C |
| Cc1cc(I)ccc1Nc1c(C(=O)NOCCCO)cc(Cl)c(F)c1F [Example 29, 5-Chloro-3,4-difluoro-N-(3-hydroxy-propoxy)-2-(4-iodo-2-methyl-phenylamino)-benzamide] | 47 nM | 155.2 to 156.6 °C |
| O=C(NOCCC(O)CO)c1cc(Cl)c(F)c(F)c1Nc1ccc(I)cc1Cl (stereo not shown) [Example 37, 5-Chloro-2-(2-chloro-4-iodo-phenylamino)-N-(3,4-dihydroxy-butoxy)-3,4-difluoro-benzamide] | 30 nM | 146 to 148 °C |
| Cc1cc(I)ccc1Nc1c(C(=O)NOCCC(O)CO)cc(Cl)c(F)c1F (stereo not shown) [Example 36, 5-Chloro-N-(3,4-dihydroxy-butoxy)-3,4-difluoro-2-(4-iodo-2-methyl-phenylamino)-benzamide] | 53 nM | 135 to 138 °C |
| C=COCCONC(=O)c1cc(Br)c(F)c(F)c1Nc1ccc(I)cc1F [Example 61, 5-Bromo-3,4-difluoro-2-(2-fluoro-4-iodo-phenylamino)-N-(2-vinyloxy-ethoxy)-benzamide] | 150 nM | 128 to 130 °C |
| COCC(O)CONC(=O)c1cc(Br)c(F)c(F)c1Nc1ccc(I)cc1Cl (stereo not shown) [Example 69, 5-Bromo-2-(2-chloro-4-iodo-phenylamino)-3,4-difluoro-N-(2-hydroxy-3-methoxy-propoxy)-benzamide] | 60 nM | 139.5 to 140.1 °C |
| O=C(NOC[C@@H]1C[C@H]1CO)c1ccc(F)c(F)c1Nc1ccc(I)cc1F (relative stereo) [Example 74, 3,4-Difluoro-2-(2-fluoro-4-iodo-phenylamino)-N-[trans-(2-hydroxymethyl-cyclopropylmethoxy)]-benzamide] | 18 nM | 128.5 to 128.7 °C |
| CC(C)(O)C(O)CONC(=O)c1ccc(F)c(F)c1Nc1ccc(I)cc1F (stereo not shown) [Example 76, N-(2,3-Dihydroxy-3-methyl-butoxy)-3,4-difluoro-2-(2-fluoro-4-iodo-phenylamino)-benzamide] | 6 nM | 180 to 183 °C |
| O=C(NOCCO)c1ccc(F)c(F)c1Nc1ccc(F)cc1F [Example 27, 2-(2,4-Difluoro-phenylamino)-3,4-difluoro-N-(2-hydroxy-ethoxy)-benzamide] | 120 nM | 141.1 to 141.6 °C |
| O=C(NOCC(O)CO)c1ccc(F)c(F)c1Nc1ccc(Br)cc1F (stereo not shown) [Example 44] | 3 nM | 110 to 117 °C (dec.) |
| Cc1cc(I)ccc1Nc1c(C(=O)NOCCO)cc(Br)c(F)c1F [Example 13, 5-Bromo-3,4-difluoro-N-(2-hydroxy-ethoxy)-2-(4-iodo-2-methyl-phenylamino)-benzamide] | 2 nM | 208.2 to 209.6 °C |
| O=C(NOC[C@H](O)CO)c1cc(Cl)c(F)c(F)c1Nc1ccc(I)cc1Cl [Example 51, 5-Chloro-2-(2-chloro-4-iodo-phenylamino)-N-[(R)-2,3-dihydroxy-propoxy]-3,4-difluoro-benzamide] | 3.8 nM | 155 to 156 °C |
| O=C(NOCCO)c1cc(Br)c(F)c(F)c1Nc1ccc(I)cc1F [Example 11, 5-Bromo-3,4-difluoro-2-(2-fluoro-4-iodo-phenylamino)-N-(2-hydroxy-ethoxy)-benzamide] | 2 nM | 189 to 190 °C |
| C=COCCONC(=O)c1ccc(F)cc1Nc1ccc(I)cc1F [Example 58, 4-Fluoro-2-(2-fluoro-4-iodo-phenylamino)-N-(2-vinyloxy-ethoxy)-benzamide] | 60 nM | 103.5 to 104 °C |
| O=C(NOCCO)c1cc(Cl)c(F)c(F)c1Nc1ccc(F)cc1F [Example 26, 5-Chloro-2-(2,4-difluoro-phenylamino)-3,4-difluoro-N-(2-hydroxy-ethoxy)-benzamide] | 240 nM | 161.6 to 162.4 °C |
